Results as given in EPA's ToxRefDB 2.

Experiments:
dog = details: Chronic toxicity; beagle; Oral; Feed; dose end: 52 week; group: systemic; systemic / organ weight / kidney / absolute + systemic / organ weight / kidney / relative to body weight + systemic / pathology microscopic…
mouse = details: Subchronic oral toxicity in rodents, cd1, Feed, dose end: 13 week, group: systemic
rat [1] = details: Multigenerational reproductive toxicity study, sprague dawley, Oral, Feed, dose end: 2 generation
rat [2] = details: Subchronic oral toxicity in rodents, sprague dawley, Feed, dose end: 90 day, group: systemic
rat [3] = details: Prenatal developmental toxicity study, sprague dawley, Oral, Gavage/Intubation, dose end: 15 GD
rat [4] = details: Prenatal developmental toxicity study, wistar, Oral, Gavage/Intubation, dose end: 15 GD
rat [5] = details: Combined chronic toxicity/carcinogenicity, sprague dawley, Oral, Feed, dose end: 24 month, group: systemic
[6] = systemic / clinical chemistry / alanine aminotransferase (alt/sgpt) / alanine aminotransferase (alt/sgpt) + systemic / clinical chemistry / …
[7] = group: parental, systemic / organ weight / liver / absolute + systemic / organ weight / liver / relative to body weight + systemic / pathology microscopic / …
[8] = group: reproductive, reproductive / reproductive performance / gestational length / gestational length
[9] = systemic / clinical chemistry / calcium / calcium
[10] = group: developmental, developmental / developmental malformation / bone / full supernumerary + developmental / developmental malformation / general / crown-rump …
[11] = group: maternal, systemic / in life observation / body weight / body weight gain + systemic / in life observation / clinical signs / body surface staining + …
[12] = group: developmental, systemic / in life observation / body weight / fetal weight
[13] = group: maternal, systemic / in life observation / body weight / body weight gain + reproductive / reproductive performance / reproductive performance other…
[14] = systemic / organ weight / adrenal gland / nos + systemic / organ weight / pituitary gland / nos + systemic / in life observation / clinical …

FC(F)C(F)(F)OCC(Cn1cncn1)c1ccc(Cl)cc1Cl (centres undefined) [Tetraconazole]
LEL (dog): 2.95 mg/kg/day | LOAEL (dog): 2.95 mg/kg/day | NEL (dog): 0.73 mg/kg/day | NOAEL (dog): 0.73 mg/kg/day | LOAEL (mouse; [6]): 20 mg/kg/day | NOAEL (mouse; [6]): 4 mg/kg/day | LEL (mouse; systemic / pathology microscopic / liver / hypertrophy + systemic / pathology microscopic / liver / degeneration): 16 mg/kg/day | NEL (mouse; systemic / pathology microscopic / liver / hypertrophy + systemic / pathology microscopic / liver / degeneration + systemic / clinical …): 4 mg/kg/day | LOAEL (rat [1]; group: offspring, systemic / in life observation / body weight / offspring (pup) weight + systemic / organ weight / liver / relative to body weight): 35.5 mg/kg/day | NOAEL (rat [1]; group: offspring, systemic / in life observation / body weight / offspring (pup) weight + systemic / organ weight / liver / relative to body weight + systemic…): 4.9 mg/kg/day | LEL (rat [1]; group: offspring, systemic / organ weight / liver / relative to body weight): 5.9 mg/kg/day | NEL (rat [1]; group: offspring, systemic / organ weight / liver / relative to body weight + systemic / in life observation / body weight / offspring (pup) weight + systemic…): 0.8 mg/kg/day | LOAEL (rat [1]; [7]): 35.5 mg/kg/day | NOAEL (rat [1]; [7]): 4.9 mg/kg/day | LEL (rat [1]; group: parental, systemic / organ weight / liver / relative to body weight): 6 mg/kg/day | NEL (rat [1]; group: parental, systemic / organ weight / liver / relative to body weight + systemic / in life observation / body weight / body weight gain + systemic / in …): 0.8 mg/kg/day | LEL (rat [1]; [8]): 5.9 mg/kg/day | LOAEL (rat [1]; [8]): 5.9 mg/kg/day | NEL (rat [1]; [8]): 0.8 mg/kg/day | NOAEL (rat [1]; [8]): 0.8 mg/kg/day | LEL (rat [2]; [9]): 0.7 mg/kg/day | NEL (rat [2]; [9]): < 0.7 mg/kg/day | NOAEL (rat [2]; systemic / clinical chemistry / calcium / calcium + systemic / in life observation / body weight / body weight gain + systemic / organ …): 4.1 mg/kg/day | LOAEL (rat [2]; systemic / in life observation / body weight / body weight gain + systemic / organ weight / liver / relative to body weight + systemic / …): 23.9 mg/kg/day | LEL (rat [3]; [10]): 100 mg/kg/day | LOAEL (rat [3]; [10]): 100 mg/kg/day | NEL (rat [3]; [10]): 22.5 mg/kg/day | NOAEL (rat [3]; [10]): 22.5 mg/kg/day | LEL (rat [3]; [11]): 22.5 mg/kg/day | LOAEL (rat [3]; [11]): > 100 mg/kg/day | NEL (rat [3]; [11]): 5 mg/kg/day | NOAEL (rat [3]; [11]): ≥ 100 mg/kg/day | LEL (rat [4]; [12]): 100 mg/kg/day | LOAEL (rat [4]; [12]): 100 mg/kg/day | NEL (rat [4]; [12]): 30 mg/kg/day | NOAEL (rat [4]; [12]): 30 mg/kg/day | LOAEL (rat [4]; group: maternal, systemic / in life observation / body weight / body weight gain): 100 mg/kg/day | LEL (rat [4]; [13]): 100 mg/kg/day | NEL (rat [4]; [13]): 30 mg/kg/day | NOAEL (rat [4]; [13]): 30 mg/kg/day | LEL (rat [5]; systemic / clinical chemistry / alanine aminotransferase (alt/sgpt) / alanine aminotransferase (alt/sgpt)): 3.4 mg/kg/day | LOAEL (rat [5]; [14]): 27.7 mg/kg/day | NEL (rat [5]; [14]): 0.4 mg/kg/day | NOAEL (rat [5]; [14]): 3.4 mg/kg/day
